Measurements as given in paper PMC5771072, “Benefits of VCE-003.2, a cannabigerol quinone derivative, against inflammation-driven neuronal deterioration in experimental Parkinson’s disease: possible involvement of different binding sites at the PPARγ receptor” (Journal of Neuroinflammation, 2018).

Target: T1, PPARγ (Homo sapiens, UniProt P37231)
T1 construct: gene PPARG; GAL4-PPARγ
T1 sequence (P37231 1-505): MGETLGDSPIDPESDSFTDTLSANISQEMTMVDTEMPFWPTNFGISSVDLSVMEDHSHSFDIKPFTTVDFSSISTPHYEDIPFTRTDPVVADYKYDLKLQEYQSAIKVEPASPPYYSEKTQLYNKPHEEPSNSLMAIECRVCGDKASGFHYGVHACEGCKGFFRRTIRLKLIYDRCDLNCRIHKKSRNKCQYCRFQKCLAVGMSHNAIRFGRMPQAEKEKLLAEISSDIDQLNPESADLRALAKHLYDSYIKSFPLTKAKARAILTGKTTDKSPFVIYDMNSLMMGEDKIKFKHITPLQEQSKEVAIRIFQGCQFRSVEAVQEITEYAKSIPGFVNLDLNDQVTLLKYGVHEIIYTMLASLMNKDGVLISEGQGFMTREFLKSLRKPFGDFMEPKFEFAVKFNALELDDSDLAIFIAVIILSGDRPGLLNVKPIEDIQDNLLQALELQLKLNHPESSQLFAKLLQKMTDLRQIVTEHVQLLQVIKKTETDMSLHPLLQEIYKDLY
Assay: GAL4-PPARγ/GAL4-luc luciferase transactivation in transfected HEK-293T cells (reference full agonist)
Type: cell-based

CN(CCOc1ccc(CC2SC(=O)NC2=O)cc1)c1ccccn1 (stereo not shown) [Rosiglitazone]
GAL4-PPARγ/GAL4-luc luciferase transactivation in transfected HEK-293T cells (re): RGZ activates PPARγ by acting mainly through the canonical binding site
